These results are taken from patent publication US8642656B2, “Calixarene-based peptide conformation mimetics, methods of use, and methods of making” (priority 2004, dated 2014).

Data set [1] has as its system endothelial cell (EC). Nature of the data set: EC Proliferation Assay, [3H]thymidine incorporation (Example 36, Table 1). In kind it is cell-based. As to conditions: read-out: EC proliferation IC50 (conc). As to the method:
Human umbilical vein derived EC(HUVEC) were harvested from normal human umbilical cords by perfusion with 0.125% trypsin/EDTA as described in Groenewegen et al., J. Exp. Med. 164, 131-143 (1986). For determination of quiescent EC phenotype isolated ECs were immediately fixed in 1% paraformaldehyde. Human microvascular ECs (MVECs) were isolated. ECs were cultured in fibronectin coated tissue culture flasks in culture medium (RPMJ-1640 with 20% human serum (HS), supplemented with 2 mM glutamine and 100 U/ml penicillin and 0.1 mg/ml streptomycin).
EC proliferation was measured using a [^3H]thymidine incorporation assay. ECs were seeded at 5000 cells/well in flatbottomed tissue culture plates and grown for 3 days, in the absence or presence of regulators, in culture medium. During the last 6 hours of the assay, the culture was pulsed with 0.5μ Ci [methyl-^3H]thymidine/well.
(Dividing cells build labelled thymidine or BrdU into new DNA.)

Data set [2] in a line: Solubility (Table 1). As to conditions: footnotes: 3 mM in 100% DMSO or ethanol → 0.03 mM in H2O. In kind it is physicochemical.
In data set [3] the test system is E. coli J96. Nature of the data set: Bactericidal assay on J96. In kind it is cell-based. As to conditions: for IC50: read-out: Bacterial activity on J96 IC50 (conc). The text has this: Pseudomonas aeruginosa type 1 is a clinical, smooth strain isolate stereotyped by using the scheme of Homma et al., Japan. J. Exp. Med. 46, 329-336 (1976) and maintained in the lab by monthly transfer on blood agar plates. E. coli J96, IA2, and H5 are smooth strain, uropathogenic clinical isolates kindly maintained and provided by J. R. Johnson and described in Johnson et al., J. Infect. Disease 173, 920-926 (1996) for J96 and IA2 and in Johnson et al., J. Infect. Disease 173, 746-749 (1996) for H5. J5 is an E. coli rough strain initially referenced by G. R. Siber and discussed in Warren et al., Infect. Immunity 55, 1668-1673 (1987) and is analogous to the smooth strain E. coli 0111:B4 used in the BioWhittaker LAL endotoxin detection and quantitation kit described below. Gram-positive MN8 and MNHO are two patient isolates of Staphylococcus aureus, which were kindly provided by P. M. Schlievert and described in Bohach et al., Rev. Infect. Diseases 11, 75-82 (1989) for MNHO and in Schlievert et al., J. Infect. Diseases 147, 236-242 (1983) for MN8. All cultures are maintained on nutrient agar plates.
Pyrogen-free solutions were used throughout the assay. Log phase bacteria were obtained by transferring an overnight culture or scraping crystals off-85° C glycerol stocks of overnight cultures. Bacteria were washed and resuspended in 0.9% sodium chloride with adjustment to an optical density at 650 nm which yields 3×10^8 CFU/ml. Bacteria were then diluted 1:10 in 0.08 M citrate phosphate buffer, pH 7.0 (prepared by mixing 0.08 M citric acid with 0.08 M dibasic sodium phosphate). Bacteria (0.15 ml) were incubated with the test compound in a final volume of 1.0 ml of buffer. The assay was done in 17×100 polypropylene tubes in a reciprocal water bath shaker at 37° C for 30 minutes. Following this 30 minute (min) incubation. 10-fold dilutions were made in 0.9% sodium chloride. Dilutions were done to 10^−4 and 20 μl of each dilution was streaked across an agar plate. Gram-positive organisms were plated on nutrient agar plates containing 2% agar and Gram-negative organisms were plated on MacConkey agar (2%). Plates were incubated overnight at 37° C and counted the next morning. The dilution containing 10-100 bacteria was counted and the number multiplied by 50 to adjust all counts to the number bacteria killed per milliliter. Compound concentrations were converted to logarithm base ten and graphed. Bactericidal activity was determined by dose response where LD50 values were determined by best fits of a sigmoidal curve to the dose response data.

Data set [4] relates to LPS from P. aeruginosa. Nature of the data set: LPS neutralization assay (Limulus amoebocyte lysate, QCL-1000). In kind it is biochemical, Pseudomonas aeruginosa. As to conditions: read-out: IC50 values (μM) for LPS binding, P.a. From the text:
(§1) The ability of compounds to neutralize endotoxin was detected in vitro by using the chromogenic QCL-1000 kit from BioWhittaker, Inc. (Walkersville, Md.), and as described in their protocol. This Limulus amoebocyte lysate (LAL) assay is quantitative for Gram negative bacterial endotoxin (lipopolysaccharide, LPS). In this assay compounds that are active inhibit the LPS-mediated activation of a proenzyme whose active form would release p-nitroaniline (pNA) from a colorless synthetic substrate producing a yellow color (pNA) whose absorption is monitored spectrophotometrically at 405-410 nm. The initial rate of enzyme activation is proportional to the concentration of endotoxin present.
(§2) Variants of LPS from six Gram negative bacteria were used: E. coli serotypes 0111:B4 (Combrex, Walkersville, Md.) and 055:B5 (Sigma, St. Louis, Mo.); Klebsiella pneumoniae (List Biologies, San Jose, Calif.); Pseudomonas aeruginosa (List Biologies, San Jose, Calif.); Salmonella typhimurium (List Biologies, San Jose, Calif.), and Serratia marcascens (List Biologies, San Jose, Calif.). The concentration of compound required to neutralize a given LPS and therefore to inhibit the Limulus amoebocyte lysate driven by 0.04 units of any given LPS was determined by dose response curves fit by using a standard sigmoidal function to determined the JC50 value for each lopomimetic compound. The 0.04 units corresponds to 0.01 ng LPS from E. coli serotype 055:B5, 0.01 ng LPS from E. coli serotype 0111:B4, 0.003 ng LPS from K. pneumoniae, 0.01 ng LPS from P. aeruginosa, 0.03 ng LPS from S. typhimurium, and 0.03 ng LPS from S. marcascens.

In data set [5] the test system is LPS from S. marcascens. The description is as above. In kind it is biochemical, Serratia marcascens. The note with it: read-out: IC50 values (μM) for LPS binding, Serratia.
From the text: as §1, §2

The test system of data set [6] is LPS from K. pneumoniae. The description is as above. In kind it is biochemical, Klebsiella pneumoniae. As to conditions: read-out: IC50 values (μM) for LPS binding, Klebsiella.
From the text: as §1, §2

Data set [7] deals with LPS from S. typhimurium. Described as above. In kind it is biochemical, Salmonella typhimurium. As to conditions: read-out: IC50 values (μM) for LPS binding, Salmonella.
From the text: as §1, §2

The subject of data set [8] is LPS from E. coli serotype 055:B5. The description is as above. In kind it is biochemical.
From the text: as §1, §2

In data set [9] the test system is LPS from E. coli serotype 0111:B4. The data set is described as above. In kind it is biochemical. The note with it: read-out: IC50 values (μM) for LPS binding, E. coli 0111:B4.
From the text: as §1, §2

The subject of data set [10] is LPS from six species of bacteria. Nature of the data set: LPS neutralization assay, overall statements. In kind it is biochemical. As to conditions: library of 23 compounds.
From the text: as §1
as §2, with “The 0.04 units corresponds to 0.01 ng LPS from E. coli serotype 055:B5, 0.01 ng LPS from E. coli serotype 0111:B4, 0.003 ng LPS from K. pneumoniae, 0.01 ng LPS from P. aeruginosa, 0.03 ng LPS from S. typhimurium, and 0.03 ng LPS from S. marcascens.” left out

In data set [11] the test system is EC. Nature of the data set: EC % total cell death (Table 1). In kind it is cell-based, human.
Data set [12] is described as follows: Hemolysis (Table 1). In kind it is cell-based. As to conditions: at 10^−6 M.
The test system of data set [13] is EC. The experiment in a line: EC % apoptosis (Table 1). In kind it is cell-based, human.
For data set [14], the system named is Fibro. The experiment in a line: Other cells, Fibro (Table 1). In kind it is cell-based.
Setting [15] is: Table 2, read-out: IC50 values (μM) for LPS binding, E. coli 055:B4.
Setting [16] is: Table 3, errors estimated ±30%, read-out: IC50 values (μM) for LPS binding, E. coli 055:B5.

“Also recorded” adds a separate entry of the source. Where two headings read alike, the source gives them in different places.

`CC(C)(C)c1cc2c(O)c(c1)Cc1cc(C(C)(C)C)cc(c1OCCNC(=N)N)Cc1cc(C(C)(C)C)cc(c1O)Cc1cc(C(C)(C)C)cc(c1OCCN)C2.O=C(O)C(F)(F)F`: the figures for the IC50 in data set [1] and in [3] were above 25000 nM and 2500 nM, respectively. Further, in [2], the “Solubility (solvent, in words)” value is listed as “DMSO/H2O”.

Turning to `CC(C)(C)c1cc2c(O)c(c1)Cc1cc(C(C)(C)C)cc(c1OCCCCNC(=N)N)Cc1cc(C(C)(C)C)cc(c1OCCCCNC(=N)N)Cc1cc(C(C)(C)C)cc(c1OCCCCNC(=N)N)C2`, the values for the IC50 in data set [1] and in data set [3] were above 25000 nM and 1300 nM, respectively. For the same compound, the “Solubility (solvent, in words)” value in data set [2] was “DMSO/H2O”.

Turning to `CC(C)CCOc1c2cc(CCC(=O)NCCN(C)C)cc1Cc1cc(CCC(=O)NCCN(C)C)cc(c1OCCC(C)C)Cc1cc(CCC(=O)NCCN(C)C)cc(c1OCCC(C)C)Cc1cc(CCC(=O)NCCN(C)C)cc(c1OCCC(C)C)C2`, the IC50 is above 25000 nM in data set [1] and 1200 nM in data set [3]. In addition, in data set [2], the “Solubility (solvent, in words)” value is “DMSO/H2O”.

`CN(C)CCNC(=O)COc1c2cc(C(C)(C)C)cc1Cc1cc(C(C)(C)C)cc(c1OCC(=O)NCCN(C)C)Cc1cc(C(C)(C)C)cc(c1OCC(=O)NCCN(C)C)Cc1cc(C(C)(C)C)cc(c1OCC(=O)NCCN(C)C)C2` [Compound 3]: the IC50 in data set [4] (Table 2) was above 5 µM; in data set [4] (Table 3, errors estimated ±30%), above 5 µM; in data set [5] (Table 2), above 5 µM; in data set [5] (Table 3, errors estimated ±30%), above 5 µM; in [6] (Table 2), 0.08 µM; in [6] (Table 3, errors estimated ±30%) it was above 5 µM. For the same compound, the IC50 in data set [7] (Table 2) is 4.1 µM; in data set [7] (Table 3, errors estimated ±30%), above 5 µM; in [8] (setting [15]), 4.4 µM; in [8] (setting [16]) it was above 5 µM; in data set [9] (Table 2), above 5 µM; in [9] (Table 3, errors estimated ±30%), above 5 µM. In addition, the “bactericidal activity (in words)” value in data set [3] (in the micromolar range (Table 1)) is listed as “reasonably good bactericidal activity”.

`CC(C)(C)c1cc2c(OCCCCN)c(c1)Cc1cc(C(C)(C)C)cc(c1OCCCCNC(=N)N)Cc1cc(C(C)(C)C)cc(c1OCCCCNC(=N)N)Cc1cc(C(C)(C)C)cc(c1OCCCCNC(=N)N)C2.O=C(O)C(F)(F)F` [Compound 43, 5,11,17,23-Tetra-tert-butyl-25,26,27-tris(4-guanidinobutyroxy)-28-(4-aminobutyroxy) calix[4]arene trifloroacetic acid salt]: the IC50 is 0.8 µM in data set [4] (Table 2); 0.8 µM in [4] (Table 3, errors estimated ±30%); 3.2 µM in [5] (Table 2); 3.2 µM in data set [5] (Table 3, errors estimated ±30%); 0.5 µM in data set [6] (Table 2); 0.5 µM in data set [6] (Table 3, errors estimated ±30%). Moreover, the IC50 in data set [7] (Table 2) was 0.6 µM; in [7] (Table 3, errors estimated ±30%) it was 0.6 µM; in data set [8] (setting [15]), 0.1 µM; in data set [8] (setting [16]) it was 0.1 µM; in data set [9] (Table 2), 0.4 µM; in data set [9] (Table 3, errors estimated ±30%) it was 0.4 µM. For the same compound, in data set [10], the “neutralizing LPS, ranking in words” value was “best LPS neutralizing compounds; also recorded: most effective for neutralizing LPS”.

As for `CN(C)CCNC(=O)COc1c2cc(C(C)(C)C)cc1Cc1cc(C(C)(C)C)cc(c1OCC(=O)NCCN(C)C)Cc1cc(C(C)(C)C)cc(c1OCC(=O)NCCN(C)C)Cc1cc(C(C)(C)C)cc(c1OCC(=O)NCCN(C)C)C2` [drawing 10], in [11], the “EC % total cell death” value is on record as “No effect”. Further, the Hemolysis in [12] is given as 100% at 10^−6 M. In data set [13], the “EC % Apoptosis 25 μM” value is reported as “No effect”. Besides, the “Other cells 25 μM, Fibro” value in data set [14] was 100%. Moreover, the IC50 is above 25000 nM in [1] and 1300 nM in [3]. In data set [2], the “Solubility (solvent, in words)” value is “DMSO/H2O”.

On to `CC(C)(C)c1cc2c(OCC(=O)NCCN)c(c1)Cc1cc(C(C)(C)C)cc(c1OCC(=O)NCCN)Cc1cc(C(C)(C)C)cc(c1OCC(=O)NCCN)Cc1cc(C(C)(C)C)cc(c1OCC(=O)NCCN)C2` [drawing 14], for which the results for the IC50 in data set [1] and in data set [3] were above 25000 nM and above 3800 nM, respectively. Further, the “Solubility (solvent, in words)” value in data set [2] was “DMSO/H2O”.
